We go through one molecule from patent US20110129455A1, “INHIBITORS OF AKT ACTIVITY” (priority 2008, published 2011).

The target in this assay is T1, full length AKT1 (Homo sapiens, UniProt P31749).
T1 construct: Full-length human AKT1 gene was amplified by PCR; His tag (from vector pFastBacHTb; N-terminal position is own knowledge of the vector) (N); made in house; host or cells: baculovirus; Sf9 / T. ni insect cells
Nature of the assay: Full-length AKT enzyme assay (substrate phosphorylation, SPA). The class given is biochemical. The settings on record: in at least one experimental run; pIC50 = -log(IC50), IC50 in molar units; 4 uM ATP, 10 nM activated AKT enzyme; read-out: pIC50 against full length AKT1 (converted). From the text:
Cloning of Full-Length Human (FL) AKT1:
Full-length human AKT1 gene was amplified by PCR from a plasmid containing myristylated-AKT1-ER (gift from Robert T. Abraham, Duke University under MTA, described in Klippel et al. in Molecular and Cellular Biology 1998 Volume 18 p. 5699) using the 5′ primer: SEQ. ID NO: 2
5′ […] 3′ and the 3′ primer: SEQ. ID NO: 3 […] 3′. The 5′ primer included a BamHl site and the 3′primer included an Xhol site for cloning purposes. The resultant PCR product was subcloned in pcDNA3 as a BamHl/Xhol fragment. A mutation in the sequence (TGC) coding for a Cysteine^25 was converted to the wild-type AKT1 sequence (CGC) coding for an Arginine^25 by site-directed mutagenesis using the QuikChange® Site Directed Mutagenesis Kit (Stratagene). The AKT1 mutagenic primer: SEQ. ID NO: 4 5′ […] and selection primer: SEQ. […] For expression/purification purposes, AKT1 was isolated as a BamHl/Xhol fragment and cloned into the BamHl/Xhol sites of pFastbacHTb (Invitrogen).
Expression was done using the BAC-to-BAC Baculovirus Expression System from Invitrogen (catalog #10359-016). […]
Compounds of the present invention were tested for AKT 1, 2, and 3 protein serine kinase inhibitory activity in substrate phosphorylation assays. […] Substrate phosphorylation was detected by the following procedure. […]

The structures appear in SMILES notation.

T1 sequence (P31749 whole entry): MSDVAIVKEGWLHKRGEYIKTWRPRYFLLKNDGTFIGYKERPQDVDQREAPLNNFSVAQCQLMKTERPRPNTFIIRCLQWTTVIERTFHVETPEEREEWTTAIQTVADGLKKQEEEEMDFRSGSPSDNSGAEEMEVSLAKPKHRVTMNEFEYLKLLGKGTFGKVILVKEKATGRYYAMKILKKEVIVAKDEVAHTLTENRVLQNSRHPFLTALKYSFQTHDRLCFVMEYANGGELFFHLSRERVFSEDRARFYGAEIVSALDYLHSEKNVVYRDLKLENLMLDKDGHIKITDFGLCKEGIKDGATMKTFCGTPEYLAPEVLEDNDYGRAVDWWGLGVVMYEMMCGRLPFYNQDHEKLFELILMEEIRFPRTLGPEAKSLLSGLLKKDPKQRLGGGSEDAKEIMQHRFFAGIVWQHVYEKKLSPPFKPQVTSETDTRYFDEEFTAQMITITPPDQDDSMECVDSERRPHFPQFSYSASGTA

In the case of `Cn1nccc1-n1cc(C(=O)N[C@H](CN)Cc2cccc(F)c2)cc1Cl` [Example 2, N-{(1S)-2-amino-1-[(3-fluorophenyl)methyl]ethyl}-5-chloro-1-(1-methyl-1H-pyrazol-5-yl)-1H-pyrrole-3-carboxamide], the IC50 is 6.31 nM.
